Here are results for three compounds from the NIST ThermoML archive (doi:10.1016/j.jct.2017.09.007).

The conditions of series [1]: Crystal; DTA.
Series [2] in a line: Molar enthalpy of transition or fusion. The conditions noted are these: Crystal; DSC.
A short description of series [3]: molar heat capacity at constant pressure. Particulars: 298.15 K, 100 kPa, Small sample (50 mg) DSC.

Molecules are shown by their SMILES. Numbers after ± are expanded uncertainties.

As for `CCOC(=O)c1ccccc1O` [ethyl 2-hydroxybenzoate], in series [1], the Normal melting temperature was 1.33 ± 0.53 °C. The “Molar enthalpy of transition or fusion” value in series [2] worked out at 5.78 ± 0.146 kcal/mol. In series [3] (Liquid), the “molar heat capacity at constant pressure” value is reported as 283.07 ± 4.4 J/K/mol.

Turning to `CCOC(=O)c1ccc(O)cc1` [ethyl 4-hydroxybenzoate], in series [1], the Normal melting temperature came out at 115.70 ± 0.45 °C. Further, the “Molar enthalpy of transition or fusion” value in series [2] was determined as 6.57 ± 0.151 kcal/mol. Further, in series [3] (Crystal), the “molar heat capacity at constant pressure” value is given as 233.93 ± 3.6 J/K/mol.

`CCOC(=O)c1cccc(O)c1` [ethyl 3-hydroxybenzoate]: the Normal melting temperature in series [1] was found to be 72.23 ± 0.46 °C. Besides, in series [2], the “Molar enthalpy of transition or fusion” value turned out to be 6.17 ± 0.146 kcal/mol. Besides, the “molar heat capacity at constant pressure” value in series [3] (Crystal) came to 217.22 ± 3.4 J/K/mol.
